Measured values published in US6815414B2, “Pharmaceutical compositions for the treatment of helicobacter pylori-associated disorders” (Vecta Ltd., priority 1998, dated 2004).
Entries after “also recorded” stand apart in the source; their conditions may differ. No end group written: not given here.

Columns and labels:
[1] = tested on: H. pylori; assay: H. pylori growth kinetics in liquid media (optical density); format: cell-based, Helicobacter pylori; conditions: peptide added to liquid media at increasing concentrations, microaerophilic, up to 48 h
[2] = tested on: H. pylori; assay: Cold inhibition assay: competition on 125I-labeled gastrin uptake by H. pylori; format: binding, Helicobacter pylori; conditions: 500 nmol/l 125I-labeled gastrin, increasing concentrations of unlabeled peptide, 45 min, 37° C.
Method: Bacteria were incubated in the presence of 500 nmo/l ^125I-labeled gastrin and increasing concentrations of either unlabeled gastrin (G), CCK-8 (CCK), pentagastrin (Pen), somatostatin (Som) or EGF for 45 min. Bacteria were washed and radioactivity remaining in bacterial pellets was determined. One experiment representative of three.
For the cold inhibition assay, bacterial pellets were resuspended in 200 μl Brucella broth containing 500 nmol/l ^125I-labeled gastrin. Unlabeled gastrin in increasing concentrations (1250-5000 nmol/l) was added concurrently. Bacteria were incubated for 45 minutes at 37° C., after which they were extensively washed with PBS. Incorporation of ^125I-labeled gastrin was determined using a gamma counter. As controls, bacteria were incubated with ^125I-labeled gastrin (500 nmol/l) in the presence of CCK-8, pentagastrin, somatostatin or EGF at the indicated concentrations.

[3] = tested on: H. pylori; assay: Radioactive gastrin uptake by H. pylori; format: cell-based, Helicobacter pylori
Method: (§1) H. pylori (H.P.), E. coli (E.C.), S. pneumonia (S.P.) and C. jejuni (C.J.) bacteria were incubated for 45 minutes with ^125I-labeled gastrin. Incubation was at 4° C. or 37° C. Following initial incubation, proteinase K (P.K) was added for 30 minutes, after which bacteria were washed and blotted. One experiment representative of two.
(§2) To assess labeled gastrin uptake, bacterial pellets were resuspended in 200 μl Brucella broth containing 500 nmol/l ^125I-labeled gastrin (IncStar Pharmatrade). Incubation was at either 4° C. or 37° C. for 45 minutes. Bacteria were washed three times in PBS, resuspended and incubated for 30 minutes in Brucella broth containing proteinase K (Promega) at a concentration of 25 ng/ml. Subsequently, bacteria were washed, resuspended in 100 μl PBS, out of which 10 μl were blotted on nitrocellulose filters and autoradiography performed for 7 days. Incorporated ^125I was quantitated using a gamma counter.

[4] = tested on: control bacteria (E. coli, S. pneumonia, C. jejuni); assay: Radioactive gastrin uptake by control bacteria; format: cell-based; conditions: 500 nmol/l, 45 min, 4° C. or 37° C.; autoradiography
Method: as §1, §2

Molecule | effect on H. pylori growth (growth curve, OD) [1] | inhibition of labeled gastrin uptake by H. pylori [2] | uptake (incorporation) of labeled gastrin by H. pylori ([3]; 500 nmol/l, 45 min, 37° C. (not at 4° C.), autoradiography) | radioactive counts incorporated by H. pylori before proteinase K incubation ([3]; before proteinase K incubation) | radioactive counts incorporated by H. pylori following incubation with proteinase K ([3]; following 30 min incubation with proteinase K) | labeling of control bacteria by labeled gastrin [4]
epidermal growth factor (EGF) (NSDSECPLSHDGYCLHDGVCMYIEALDKYACNCVVGYIGERCQYRDLKWWELR; Epidermal growth factor; UniProt P01133 971-1023, looked up) [growth factor peptide found within the gastric lumen, control peptide] | none of the peptides had an effect | no inhibition |  |  |  | 
^125I-labeled gastrin: 125I-labeled gastrin (IncStar Pharmatrade) used as radioligand for uptake |  |  | only H. pylori incubated at 37 °C incorporated | 311 CPM | 385 CPM | no labeling
cholecystokinin (CCK)-8 (fragment 26-33) (DYMGWMDF-NH2; ends and bridges not checked; UniProt P06307 96-103, looked up) [CCK-8, gastrin/CCKB receptor agonist peptide comprising Trp-Met-Asp-PheNH2] | did not stimulate bacterial growth; also recorded: none of the peptides had an effect | competed with gastrin on the binding to H. pylori; also recorded: inhibited labeled gastrin uptake in a dose-dependent manner |  |  |  | 
C[C@H](N)C(=O)NCC(=O)N[C@H]1CSSC[C@@H](C(=O)O)NC(=O)[C@H](CO)NC(=O)[C@H]([C@@H](C)O)NC(=O)[C@H](Cc2ccccc2)NC(=O)[C@H]([C@@H](C)O)NC(=O)[C@H](CCCCN)NC(=O)[C@H](Cc2c[nH]c3ccccc23)NC(=O)[C@H](Cc2ccccc2)NC(=O)[C@H](Cc2ccccc2)NC(=O)[C@H](CC(N)=O)NC(=O)[C@H](CCCCN)NC1=O [somatostatin, somatostatin 14] | none of the peptides had an effect | no inhibition |  |  |  | 
